Measured values taken from patent publication US7405205B2, “Antitumor antisense sequences directed against R1 and R2 components of ribonucleotide reductase” (Lorus Therapeutics Inc., priority 1996, dated 2008).
Strand notation (5' to 3'): a small letter for the sugar, then the base; units joined by * are phosphorothioate-linked, units joined directly phosphodiester-linked; [ ] holds rarer units or linkages, { } end groups; capitals alone tell only the bases. d = 2'-deoxy (DNA)

Columns and labels:
Type in all cases: cell-based, human
[1] = test system: T24 bladder cell carcinoma; assay: Relative colony forming efficiency after antisense treatment (Table 13); conditions: 0.2 μM antisense oligodeoxyribonucleotide phosphorothioate; T24 cells; averages of 2-8 determinations
[2] = test system: MDA-MB-231 breast cell adenocarcinoma; assay: Relative colony forming efficiency after antisense treatment (Table 13, FIG. 11, FIG. 12); conditions: 0.2 μM antisense oligodeoxyribonucleotide phosphorothioate; MDA-MB-231 cells; averages of 2-8 determinations
Protocol: Colony forming efficiency was determined as previously reported [Huang and Wright, 1994]. The cells were cultured for 24 hours at 37° C. in growth medium with 10% fetal bovine serum. The cells were washed in 5 ml phosphate buffered saline, pH 7.2, once prior to lipofectin+/−oligonucleotide treatment.
The oligonucleotides being tested were added to cell cultures in the presence of 2.5 μg of DOTMA/DOPE (Lipofectin; Life Technologies, Inc.) for four hours. The oligonucleotide was tested at 0.2 μM unless otherwise indicated. Controls were the cultures treated with lipofectin but without the oligonucleotide. After 4 hours the medium containing the oligonucleotide was removed and washed with 5 ml of growth medium. The cells were then cultured in growth medium containing 10% fetal bovine serum for seven to ten days. Surviving cells were visualized by methylene blue staining, and colonies were scored. In some experiments cell aliquotes were removed from the culture and viability was determined using the trypan blue exclusion test [Phillips, 1973]. Results were analyzed as percent of surviving cells compared to control cells.
To test the antisense effects of many of these sequences as phosphorthioate deoxyribonucleotides, they were examined in relative colony forming experiments performed with a series of human tumor cell lines. Many of these antisense constructs, as predicted, are potent inhibitors of human tumor cell proliferation. For results obtained with cancer cells derived from the bladder, breast, lung, colon, pancreas, prostate, liver and cervix, see Table 13. In addition, in vivo studies with AS-II-626-20 were undertaken in C3H/HeN mice as reported in Table 14 and show a significant reduction in metastasis in the antisense treated mice.
Colony forming ability of MDA-MB-231 human breast cancer cells treated with 28 different antisense oligonucleotides was estimated as previously described (Choy et al., 1988). Aliquots of cell suspension were seeded into 60 mm Petri dishes and incubated at 37° C. overnight in α-MEM medium supplemented with 10% fetal bovine serum. Cells were washed in 5 ml of phosphate buffered saline, pH 7.2, prior to 0.2 μM antisense/lipofectin treatments for 4 hours. The media containing the antisense oligonucleotides were removed and cells were washed once and cultured in growth medium for 7 to 10 days. Colonies were stained with methylene blue and scored as described (Choy et al., 1988; Huang and Wright 1994). Percent inhibition was calculated by comparison with the number of colonies present in cultures grown in the absence of antisense oligonucleotides. All experiments were performed in quadruplicate. FIG. 11 is a graph of the percentage inhibition of colony formation by treatment with the various antisense oligonucleotides.
Colony forming ability of various human tumor cell lines was estimated by determining relative colony forming efficiencies (Choy et al., 1988). Cells from various cell lines were washed in 5 ml of phosphate buffered saline, pH 7.2. The cells were treated with 0.2 μM AS-I-618-20 antisense oligonucleotide/lipofectin for 4 hours. The medium containing the antisense oligonucleotide was then removed and the cells were gently washed with 5 ml of growth medium. The cells were cultured in growth medium containing 10% fetal bovine serum for seven to ten days. […] The following human tumor cell lines were evaluated: HepG2 (liver), SK-OV-3 (ovary), U87 (brain), A2058 (melanoma), H460 (lung), MDA-MB-231 (breast) and AsPC-1 (pancreas).

[3] = test system: MIA PaCa-2 pancreatic cell carcinoma; assay: Relative colony forming efficiency after antisense treatment (Table 13); conditions: 0.2 μM antisense oligodeoxyribonucleotide phosphorothioate; MIA PaCa-2 cells; averages of 2-8 determinations
[4] = test system: A549 lung cell carcinoma; assay: as above; conditions: 0.2 μM antisense oligodeoxyribonucleotide phosphorothioate; A549 cells; averages of 2-8 determinations
[5] = test system: PC-3 prostrate cell adenocarcinoma; assay: as above; conditions: 0.2 μM antisense oligodeoxyribonucleotide phosphorothioate; PC-3 cells; averages of 2-8 determinations
[6] = test system: HepG2 hepatocellular carcinoma; assay: Relative colony forming efficiency after antisense treatment (Table 13, FIG. 12); conditions: 0.2 μM antisense oligodeoxyribonucleotide phosphorothioate; HepG2 cells; averages of 2-8 determinations
[7] = test system: HCT116 colon cell carcinoma; assay: Relative colony forming efficiency after antisense treatment (Table 13); conditions: 0.2 μM antisense oligodeoxyribonucleotide phosphorothioate; HCT116 cells; averages of 2-8 determinations

Sequence | Reduced relative colony forming efficiency, expressed as % inhibition, T24 [1] [%] | Reduced relative colony forming efficiency, expressed as % inhibition, MDA-MB-231 [2] [%] | Reduced relative colony forming efficiency, expressed as % inhibition, MIA PaCa-2 [3] [%] | Reduced relative colony forming efficiency, expressed as % inhibition, A549 [4] [%] | Reduced relative colony forming efficiency, expressed as % inhibition, PC-3 [5] [%] | Reduced relative colony forming efficiency, expressed as % inhibition, HepG2 [6] [%] | Reduced relative colony forming efficiency, expressed as % inhibition, HCT116 [7] [%]
AAACGGCTTCTCACACATAT (antisense; DNA, all phosphorothioate, methylation of C not given here) [AS-II-2151-20] | 79.83 | 95.14 | 62.15 | 79.19 | 84.86 | – | –
AACCGGAAAAGAAAATGCCT (antisense; DNA, all phosphorothioate, methylation of C not given here) [AS-II-890-20] | 82.07 | 88.2 | 66.02 | 81.6 | 87.93 | – | –
ACCCTTCCCATTGGCTGCGC (dA*dC*dC*dC*dT*dT*dC*dC*dC*dA*dT*dT*dG*dG*dC*dT*dG*dC*dG*dC; antisense) [AS-II-6-20] | 73.85 | 88.4 | 95.15 | – | 89.21 | 97.89 | –
ATTAAAATCTGCGTTGAAGC (DNA, all phosphorothioate, methylation of C not given here) [AS-II-1700-20] | 70.94 | 30.75 | 34.52 | 77.28 | 90.63 | – | –
CACACAACCTACTTACACCA (antisense; DNA, all phosphorothioate, methylation of C not given here) [AS-II-2372-20] | 61.13 | 90.09 | 94.36 | 96.41 | 86.06 | – | 64.7
CAGAATATCGACGCAAAAGA (antisense; DNA, all phosphorothioate, methylation of C not given here) [AS-II-909-20] | 78.57 | 45.96 | 46.13 | 78.68 | 84.86 | – | –
GACATCACTCCCATCCTCTG (DNA, all phosphorothioate, methylation of C not given here) [AS-II-1302-20] | 70.56 | 92.2 | 23.86 | 93.17 | 79.01 | – | 71.98
GGCCCAGATCACCCCTAAAT (antisense; DNA, all phosphorothioate, methylation of C not given here) [AS-II-2128-20] | 83.74 | 91.3 | 39.23 | 87.31 | 88.89 | – | –
TATCGCCGCCGTGAGTACAA (DNA, all phosphorothioate, methylation of C not given here) [AS-II-1768-20] | 74.56 | 91.56 | 60.36 | 86.8 | 86.36 | – | –
TCGCCTACTCTCTTCTCAAA (DNA, all phosphorothioate, methylation of C not given here) [AS-II-1278-20] | 65.42 | 90.68 | 57.05 | – | 85.31 | – | –
TGCCTCCGACCCTTCCCATT (antisense dT*dG*dC*dC*dT*dC*dC*dG*dA*dC*dC*dC*dT*dT*dC*dC*dC*dA*dT*dT) [AS-II-14-20] | 77.59 | 91.24 | 47.93 | – | 92.76 | 88.4 | –
TGGCACCAACTGACTAATAT (antisense; DNA, all phosphorothioate, methylation of C not given here) [AS-II-1976-20] | – | 89.6 | – | – | 88.16 | – | –
TGGCTGTGCTGGTTAAAGGA (DNA, all phosphorothioate, methylation of C not given here) [AS-II-1659-20] | 74.09 | 42.86 | 42.54 | 54.7 | 81.56 | – | –
TTAGTGGTCAGGAGAATGTA (antisense; DNA, all phosphorothioate, methylation of C not given here) [AS-II-1819-20] | 53.74 | 90.68 | 20.02 | – | 85.46 | 83.89 | –
TTCATGGTGTGGCTAGTTGG (DNA, all phosphorothioate, methylation of C not given here) [AS-II-1438-20] | 43.7 | 69.06 | 42.13 | 51.27 | 83.96 | – | –
TTTTAACTGGCTGTGCTGGT (DNA, all phosphorothioate, methylation of C not given here) [AS-II-1666-20] | 71.71 | 26.71 | 49.72 | 54.82 | 86.06 | – | –
